The experiment deals with T1, chicken gizzard smooth muscle myosin subfragment-1 chemically crosslinked to cardiac or skeletal actin (Gallus gallus, UniProt P10587).
T1 construct: chicken gizzard smooth muscle myosin subfragment-1; from tissue; host or cells: chicken gizzard
Description: Smooth muscle myosin ATPase dose response assay (pyruvate kinase/horseradish peroxidase/pyruvate oxidase-coupled, amplex red fluorescence). The format is biochemical. The conditions noted are these: read-out: IC50 Arithmetic Mean. The method in brief: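 ATPase monitored by amplex red fluorescence (ex 480/em 615 nm) via pyruvate oxidase/HRP coupling, pH 7.00, ATP 0.15 mM. Enzyme: smooth muscle S1-actin crosslinked conjugate, amount set empirically by titration. Dose-response fitted with 4-parameter Hill equation for IC50.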

T1 sequence (P02607 2-151): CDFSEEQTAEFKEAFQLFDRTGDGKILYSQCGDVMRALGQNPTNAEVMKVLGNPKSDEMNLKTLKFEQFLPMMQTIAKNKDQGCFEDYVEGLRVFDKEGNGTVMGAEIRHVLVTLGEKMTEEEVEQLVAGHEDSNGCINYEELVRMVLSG
T1 sequence (P10587 84-789): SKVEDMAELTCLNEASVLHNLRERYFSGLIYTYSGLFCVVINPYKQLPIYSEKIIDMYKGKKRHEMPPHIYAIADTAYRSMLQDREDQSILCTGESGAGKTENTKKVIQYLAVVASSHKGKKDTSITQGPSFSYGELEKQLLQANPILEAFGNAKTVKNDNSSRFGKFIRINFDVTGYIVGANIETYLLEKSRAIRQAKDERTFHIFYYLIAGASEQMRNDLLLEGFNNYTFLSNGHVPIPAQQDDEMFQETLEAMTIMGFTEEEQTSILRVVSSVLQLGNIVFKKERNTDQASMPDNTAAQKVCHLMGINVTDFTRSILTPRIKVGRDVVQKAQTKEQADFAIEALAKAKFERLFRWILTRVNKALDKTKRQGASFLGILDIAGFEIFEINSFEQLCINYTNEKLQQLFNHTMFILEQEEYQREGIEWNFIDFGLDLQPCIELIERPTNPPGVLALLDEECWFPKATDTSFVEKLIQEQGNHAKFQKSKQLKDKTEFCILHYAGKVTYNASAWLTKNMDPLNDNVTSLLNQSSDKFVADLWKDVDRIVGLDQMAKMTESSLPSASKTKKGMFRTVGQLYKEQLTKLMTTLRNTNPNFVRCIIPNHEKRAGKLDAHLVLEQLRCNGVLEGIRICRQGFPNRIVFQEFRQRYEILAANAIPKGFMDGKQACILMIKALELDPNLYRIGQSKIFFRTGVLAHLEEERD

As usually defined, the IC50 is the midpoint of a concentration-inhibition curve. `Cn1cc(-c2nc(NCCc3cccc(F)c3)c(C(=O)NC[C@H](CO)NC(=O)OC(C)(C)C)cc2F)cn1` [N-((1R)-1-{[(5-fluoro-2-{[2-(3-fluorophenyl)ethyl]amino}-6-(1-methylpyrazol-4-yl)(3-pyridyl))carbonylamino]methyl}-2-hydroxyethyl)(tert-butoxy)carboxamide]: the IC50 was determined as 25900 nM.

For the compound `CC[C@H](CNC(=O)c1cc(F)c(-c2cnn(C)c2)nc1NCCc1cccc(F)c1)NC(=O)CNC(=O)OC(C)(C)C` [N-((1R)-1-{[(5-fluoro-2-{[2-(3-fluorophenyl)ethyl]amino}-6-(1-methylpyrazol-4-yl)(3-pyridyl))carbonylamino]methyl}propyl)-2-[(tert-butoxy)carbonylamino]acetamide], the IC50 came to 3040 nM.

Regarding `CC[C@H](CNC(=O)c1cc(F)c(-c2cnn(C)c2)nc1NCCc1cccc(F)c1)NC(=O)CN` [N-((1R)-1-{[(5-fluoro-2-{[2-(3-fluorophenyl)ethyl]amino}-6-(1-methylpyrazol-4-yl)(3-pyridyl))carbonylamino]methyl}propyl)-2-aminoacetamide], the half-inhibitory concentration (IC50) was determined as 131 nM.

Consider `CC[C@H](CNC(=O)c1cc(F)c(-c2cn[nH]c2)nc1NCCc1cccc(F)c1)NC(=O)CNC(=O)OC(C)(C)C` [N-((1R)-1-{[(5-fluoro-2-{[2-(3-fluorophenyl)ethyl]amino}-6-pyrazol-4-yl(3-pyridyl))carbonylamino]methyl}propyl)-2-[(tert-butoxy)carbonylamino]acetamide], for which the IC50 was found to be 4320 nM.

On to `CC[C@H](CNC(=O)c1cc(F)c(-c2cn[nH]c2)nc1NCCc1cccc(F)c1)NC(=O)CN` [N-((1R)-1-{[(5-fluoro-2-{[2-(3-fluorophenyl)ethyl]amino}-6-pyrazol-4-yl(3-pyridyl))carbonylamino]methyl}propyl)-2-aminoacetamide], for which the IC50 is 160 nM.

On to `CC(C)[C@H](CNC(=O)c1ccc(-c2ccccc2C#N)nc1NCCc1cccc(F)c1)NC(=O)CN` [N-((1R)-1-{[(6-(2-cyanophenyl)-2-{[2-(3-fluorophenyl)ethyl]amino}(3-pyridyl))carbonylamino]methyl}-2-methylpropyl)-2-aminoacetamide], for which the IC50 was found to be 939 nM.

Consider `CC(C)[C@H](CNC(=O)c1ccc(-c2ccccc2C#N)nc1NCCc1cccc(F)c1)NC(=O)CO` [N-((1R)-1-{[(6-(2-cyanophenyl)-2-{[2-(3-fluorophenyl)ethyl]amino}(3-pyridyl))carbonylamino]methyl}-2-methylpropyl)-2-hydroxyacetamide], for which the IC50 worked out at 441 nM.

As for `CC(C)C[C@H](CNC(=O)c1ccc(-c2ccccc2C#N)nc1NCCc1cccc(F)c1)NC(=O)CN` [N-((1R)-1-{[(6-(2-cyanophenyl)-2-{[2-(3-fluorophenyl)ethyl]amino}(3-pyridyl))carbonylamino]methyl}-3-methylbutyl)-2-aminoacetamide], the IC50 was found to be 913 nM.

For the compound `CC(C)C[C@H](CNC(=O)c1ccc(-c2ccccc2C#N)nc1NCCc1cccc(F)c1)NC(=O)CO` [N-((1R)-1-{[(6-(2-cyanophenyl)-2-{[2-(3-fluorophenyl)ethyl]amino}(3-pyridyl))carbonylamino]methyl}-3-methylbutyl)-2-hydroxyacetamide], the IC50 was 1170 nM.

Turning to `N#Cc1ccccc1-c1ccc(C(=O)N[C@H](CN)C(N)=O)c(NCCc2cccc(F)c2)n1` [N-((1R)-2-amino-1-carbamoylethyl)(6-(2-cyanophenyl)-2-{[2-(3-fluorophenyl)ethyl]amino}(3-pyridyl))carboxamide], the IC50 worked out at 538 nM.

In the case of `N#Cc1ccccc1-c1ccc(C(=O)NC[C@@H](CN)NC(=O)CN)c(NCCc2cccc(F)c2)n1` [N-((1R)-2-amino-1-{[(6-(2-cyanophenyl)-2-{[2-(3-fluorophenyl)ethyl]amino}(3-pyridyl))carbonylamino]methyl}ethyl)-2-aminoacetamide], the IC50 turned out to be 12600 nM.

In the case of `N#Cc1ccccc1-c1ccc(C(=O)NC[C@@H](CN)NC(=O)CO)c(NCCc2cccc(F)c2)n1` [N-((1R)-2-amino-1-{[(6-(2-cyanophenyl)-2-{[2-(3-fluorophenyl)ethyl]amino}(3-pyridyl))carbonylamino]methyl}ethyl)-2-hydroxyacetamide], the IC50 was determined as 10600 nM.

In the case of `N#Cc1ccccc1-c1ccc(C(=O)N[C@H](CCCN)C(N)=O)c(NCCc2cccc(F)c2)n1` [N-((1R)-4-amino-1-carbamoylbutyl)(6-(2-cyanophenyl)-2-{[2-(3-fluorophenyl)ethyl]amino}(3-pyridyl))carboxamide], the IC50 came to 7410 nM.

For `N#Cc1ccccc1-c1ccc(C(=O)N[C@H](CCCCN)C(N)=O)c(NCCc2cccc(F)c2)n1` [N-((1R)-5-amino-1-carbamoylpentyl)(6-(2-cyanophenyl)-2-{[2-(3-fluorophenyl)ethyl]amino}(3-pyridyl))carboxamide], the IC50 was 1280 nM.

For the compound `N#Cc1ccccc1-c1ccc(C(=O)N[C@@H](CO)C(N)=O)c(NCCc2cccc(F)c2)n1` [N-((1S)-1-carbamoyl-2-hydroxyethyl)(6-(2-cyanophenyl)-2-{[2-(3-fluorophenyl)ethyl]amino}(3-pyridyl))carboxamide], the IC50 was 1020 nM.

For the compound `N#Cc1ccccc1-c1ccc(C(=O)NC[C@@H](CO)NC(=O)CN)c(NCCc2cccc(F)c2)n1` [N-((1S)-1-{[(6-(2-cyanophenyl)-2-{[2-(3-fluorophenyl)ethyl]amino}(3-pyridyl))carbonylamino]methyl}-2-hydroxyethyl)-2-aminoacetamide], the 50% inhibitory concentration (IC50) was found to be 249 nM.

`N#Cc1ccccc1-c1ccc(C(=O)N[C@@H](CN)C(N)=O)c(NCCc2cccc(F)c2)n1` [N-((1S)-2-amino-1-carbamoylethyl)(6-(2-cyanophenyl)-2-{[2-(3-fluorophenyl)ethyl]amino}(3-pyridyl))carboxamide]: the IC50 was 816 nM.

On to `N#Cc1ccccc1-c1ccc(C(=O)N[C@@H](CCCN)C(N)=O)c(NCCc2cccc(F)c2)n1` [N-((1S)-4-amino-1-carbamoylbutyl)(6-(2-cyanophenyl)-2-{[2-(3-fluorophenyl)ethyl]amino}(3-pyridyl))carboxamide], for which the IC50 was determined as 5400 nM.

For the compound `N#Cc1ccccc1-c1ccc(C(=O)N[C@@H](CCCCN)C(N)=O)c(NCCc2cccc(F)c2)n1` [N-((1S)-5-amino-1-carbamoylpentyl)(6-(2-cyanophenyl)-2-{[2-(3-fluorophenyl)ethyl]amino}(3-pyridyl))carboxamide], the IC50 stood at 4420 nM.

On to `N#Cc1ccccc1-c1ccc(C(=O)NC[C@@H](N)C(N)=O)c(NCCc2cccc(F)c2)n1` [N-((2R)-2-amino-2-carbamoylethyl)(6-(2-cyanophenyl)-2-{[2-(3-fluorophenyl)ethyl]amino}(3-pyridyl))carboxamide], for which the IC50 amounted to 321 nM.

For `Cn1cc(-c2nc(NCCc3cccc(F)c3)c(C(=O)NC[C@@H](N)CO)cc2F)cn1` [N-((2R)-2-amino-3-hydroxypropyl)(5-fluoro-2-{[2-(3-fluorophenyl)ethyl]amino}-6-(1-methylpyrazol-4-yl)(3-pyridyl))carboxamide], the IC50 was 1260 nM.

Consider `N[C@@H](CO)CNC(=O)c1cc(F)c(-c2cn[nH]c2)nc1NCCc1cccc(F)c1` [N-((2R)-2-amino-3-hydroxypropyl)(5-fluoro-2-{[2-(3-fluorophenyl)ethyl]amino}-6-pyrazol-4-yl(3-pyridyl))carboxamide], for which the IC50 was found to be 1820 nM.

(Values after patent US7932270B2 (Cytokinetics, Inc., priority 2006, dated 2011).)
